From ChEMBL document CHEMBL1153195 (Bioorg Med Chem Lett, 2010) come the findings set out here.

One may read the Ki as a measure of affinity in units of concentration, obtained from inhibition or displacement. Low values mean a stronger hold on the target, high ones a looser hold on the target. A word on the Cmax: it is the highest concentration seen after dosing. For orientation: AUC(0-t) means the area under the concentration-time curve up to a stated or last time point. Read a high AUC(0-t) as high exposure. Broadly, the Kp is tissue or fluid exposure divided by exposure in the circulation.

One series concerns the target Substance-P receptor (Homo sapiens, UniProt P25103). In words: Displacement of [3H]substance P from human NK1 receptor expressed in CHO cells. Type of series: cell-based.
Series [1] can be described thus: Cmax in rat at 1 mg/kg, po. It is filed as ADME, organism-based. Also noted: dose 1 mg/kg, route oral. Conditions: in vivo.
Series [2] can be described thus: AUC (0 to 8 hrs) in rat at 1 mg/kg, po. It is filed as ADME, organism-based. More on the design: time < 8 hr, dose 1 mg/kg, route oral. Conditions: plasma.
The subject of another series is Gerbillinae. As to the kind of experiment: Anxiolytic-like activity in po or sc dosed gerbils assessed as inhibition of GR-73632-induced foot tapping administered 1 hr before GR-73632 challenge measured. Type of series: functional. The following applies: for ED50: read-out: ID50 (the source's name).
Series [3] can be described thus: Ratio of drug level in brain to plasma in rat at 1 mg/kg, po after 5 mins. It is filed as ADME, organism-based. Also noted: dose 1 mg/kg, route oral.

The structures appear in SMILES notation.

Substance-P receptor, sequence (P25103 whole entry): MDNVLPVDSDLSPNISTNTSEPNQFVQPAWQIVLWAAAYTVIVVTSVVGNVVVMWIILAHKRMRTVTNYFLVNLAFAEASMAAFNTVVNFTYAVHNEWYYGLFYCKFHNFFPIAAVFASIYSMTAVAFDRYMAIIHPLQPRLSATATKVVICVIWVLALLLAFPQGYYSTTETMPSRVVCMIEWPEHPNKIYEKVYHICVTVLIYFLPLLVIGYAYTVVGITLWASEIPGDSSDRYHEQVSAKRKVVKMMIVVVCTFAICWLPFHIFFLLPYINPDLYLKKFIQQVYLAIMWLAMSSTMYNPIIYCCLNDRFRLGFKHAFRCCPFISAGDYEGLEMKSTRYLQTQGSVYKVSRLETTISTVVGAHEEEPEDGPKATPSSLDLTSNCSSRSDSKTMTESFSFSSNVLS

`Cc1cc(F)ccc1C1CNCC2CN(Cc3cc(C(F)(F)F)cc(C(F)(F)F)c3)C(=O)N21` (stereo not given) showed a Ki at Substance-P receptor of 50.1 nM.
Molecule `Cc1cc(F)ccc1[C@H]1CNCCN1C(=O)N(C)C1(c2cc(C(F)(F)F)cc(C(F)(F)F)c2)CC1` came in with a Cmax in series [1] of 29 ng/mL. The molecule further displayed an AUC(0-t) at 8 h in series [2] of 108 ng·h/mL. This molecule showed a Ki at Substance-P receptor of 0.501 nM. Besides, in the series with Gerbillinae, the Activity entry was “Dose-dependent effect” and the ED50 was found to be 0.2 mg/kg.
Molecule `Cc1cc(F)ccc1[C@H]1CNCCN1C(=O)N1CCCC1c1cc(C(F)(F)F)cc(C(F)(F)F)c1` (stereo in doubt; 2a) gave a Ki on Substance-P receptor of 63.1 nM.
Still for that read-out and setting: then `Cc1cc(F)ccc1[C@H]1CNCCN1C(=O)N1CCCC1c1cc(C(F)(F)F)cc(C(F)(F)F)c1` (stereo in doubt; 2b), with 6.31 nM; and `Cc1cc(F)ccc1[C@H]1CNCCN1C(=O)N1CCC=CC1c1cc(C(F)(F)F)cc(C(F)(F)F)c1` (stereo in doubt; 3a), with 20 nM.
On the same count and under the same terms, then `Cc1cc(F)ccc1[C@H]1CNCCN1C(=O)N1CCC=CC1c1cc(C(F)(F)F)cc(C(F)(F)F)c1` (stereo in doubt; 3b), with 0.501 nM; and `Cc1cc(F)ccc1[C@H]1CNCCN1C(=O)N1CCCCC1c1cc(C(F)(F)F)cc(C(F)(F)F)c1` (stereo in doubt; 4a), with 31.6 nM; and `Cc1cc(F)ccc1[C@H]1CNCCN1C(=O)N1CCCCC1c1cc(C(F)(F)F)cc(C(F)(F)F)c1` (stereo in doubt; 4b), with 1.26 nM.
Same read-out and setting: the result for `Cc1cc(F)ccc1[C@H]1CNCCN1C(=O)N1CCNCC1c1cc(C(F)(F)F)cc(C(F)(F)F)c1` (stereo in doubt; 5a) reads 100 nM.
Molecule `Cc1cc(F)ccc1[C@H]1CNCCN1C(=O)N1CCNCC1c1cc(C(F)(F)F)cc(C(F)(F)F)c1` (stereo in doubt; 5b) [listing 1 of 2 here] gave a peak concentration (Cmax) in series [1] of 32 ng/mL. The AUC(0-t) at 8 h in series [2] came to 145 ng·h/mL. Moreover, the Kp at 5 min in series [3] is 0.9. On Substance-P receptor, this molecule gave a Ki of 0.794 nM. For the same molecule, the ED50 with Gerbillinae was found to be 0.4 mg/kg.
With `Cc1cc(F)ccc1[C@H]1CNCCN1C(=O)N1CCNCC1c1cc(C(F)(F)F)cc(C(F)(F)F)c1` (stereo in doubt; 5b) [listing 2 of 2 here], in the series on Gerbillinae, the Activity result was “Dose-dependent effect”.
Turning to `Cc1cc(F)ccc1[C@H]1CNCCN1C(=O)N(C)[C@H](C)c1cc(C(F)(F)F)cc(C(F)(F)F)c1` [VESTIPITANT], the ED50 in the series with Gerbillinae was determined as 0.014 mg/kg.
